One assay relates to Rabbit megalin. Description: Megalin-cubilin interaction analysis by surface plasmon resonance. The class given is binding. Here is the method: Rabbit megalin was immobilized to a sensor chip and the on rates and off rates for the binding of cubilin was recorded by flow of 20 nM purified cubilin along the chip surface. For control, cubilin was subjected to a blank chip. […] The binding curves in the presence of 10 mM EDTA or after prebinding of RAP to megalin are also shown. […] By fitting the binding data to a one-binding-site model a Kd of 7 nM was measured.
Surface plasmon resonance measurements were performed on a BIAcore 2000 instrument (Pharmacia, Sweden). BIAcore sensor chips (type CM5, Pharmacia) were activated with 1:1 mixture of 0.2 M N-ethyl-N′-(3-dimethylaminopropyl) carbodiimide and 0.05 M N-hydroxysuccimine in water. Rabbit megalin was immobilized as described (Moestrup et al., 1996) at a concentration of 40 μg/ml in 10 mM sodium acetate, pH 4.5 and the remaining binding sites were blocked with 1 M ethanolamine, pH 8.5. The flow buffer was 10 mM Hepes, 150 mM NaCl and […], 1 mM EDTA, pH 7.4. The binding data were analyzed using the BIAevaluation program.
Bound radiolabel was released from the column by EDTA. Surface plasmon analysis (FIG. 10A) confirmed this binding. […] Megalin-bound cubilin was still capable of binding IF-B12 as shown by subjecting the megalin-chip to flow with IF-B12 after the binding of cubilin (FIG. 10B). Thus, the response after adding IF-B12 represents the formation of a megalin-cubilin-IF-B12 complex.

The target in assay [1] is rabbit megalin (rabbit). Briefly: SPR, RAP prebound to immobilized rabbit megalin; competitor cubilin in flow. In general terms: Surface plasmon resonance follows binding to a sensor surface in real time, without labels.
Assay [2] addresses megalin in native membranes (rat renal brush-border membrane vesicles; rat yolk sac cells) (rat) (UniProt P98158). Description: cell-based or functional assay.
Assay [3] has as its target T1, Cubilin (Rattus norvegicus, UniProt O70244). Description: Ligands for cubilin: competition with known ligands. The class given is binding. The settings on record: RAP vs IF-B12; haptoglobin vs light chains; gentamicin vs light chain.
Assay [4] deals with rat renal cortical intermicrovillar clefts. Description: Endosomal fusion reconstituted in vitro (energy transfer). Set-up: dose or concentration left out as unconfirmed. Format: biochemical. Conditions: membranes loaded with λ-light chains via homogenization buffer; n=8. The source says:
The λ_light chains were loaded into rat renal cortical intermicrovillar cleft at […] by addition to the homogenization buffer. Fusion reconstituted in vitro in light chain-loaded membranes was inhibited compared with albumin-loaded control membranes. Values are mean±standard error for n=8, p<0.05 by unpaired t-test.
Fusion of these light chain loaded membranes was compared to control membranes loaded with the same concentration of albumin. All fluorescence measurements were corrected per mg of protein, and fusion reconstituted in vitro in cuvettes (Hammond et al., 1994). Data are expressed as mean +standard error of the mean throughout the application. Statistical analysis was performed by analysis of variance and Bonferroni or Scheffe's post hoc comparison.
To test whether myeloma light chains are functionally important in membrane trafficking and fusion events, intermicrovillar clefts were loaded with light chains by adding it to the homogenization buffer (Hammond et al., 1994). Fusion reconstituted in vitro in cuvettes was assayed by energy transfer, and results were normalized per milligram protein (Hammond et al., 1994; Jo et al., 1995).

Assay [5] addresses T1, Cubilin. Briefly: Surface plasmon resonance analysis of light chain/cubilin interaction. Format: binding. More on the design: from tissue; host or cells: rat renal cortex (intermicrovillar clefts). The settings on record: cubilin 100 nM preincubated with κ-light chains (10 or 490 μM) or λ-light chains (10 μM). Here is the method: A sample of cubilin (100 nM) was incubated with κ-light chains (10 or 490 μM), or […] prior to injecting the sample over the κ-light chain surface. The binding of cubilin to the immobilized surfaces was reduced in the presence of κ- or λ-light chains in a dose-response fashion. Data are representative of experiments with 4 light chains on 3 chips. […] LC, light chains: RU, response units.
Intermicrovillar clefts prepared from renal cortices were biotinylated on the cytosolic facade using NHS-biotin (Winearls, 1995). Cubilin and the associated proteins were purified by immunoaffinity chromatography MAb 75 was coupled to CNBr-activated Sepharose 4B (Pharmacia, Saint Quentin en Yvelines, France) as previously described (Sahali et al., 1988; 1993). Protease inhibitors were added at all steps.
κ- or λ-light chains were immobilized via free amine groups to the dextran matrix of CM5 sensor chips activated by a 1/1 mixture of NHS and EDC. Unreacted sites were blocked with 1M ethanolamine, pH 8.5, (Jonsson et al., 1991; Sanders et al., 1988). The immobilization was conducted at 25° C. using 10 mM HEPES, 2 mM CaCl2, 150 mM NaCl, 0.005% NP-40, pH 7.4 as the flow buffer. Then 10 mM acetate pH 4.8 was used for electrostatic pre-concentration of the protein. […]

Assay [6] concerns yolk sac epithelial cells (BN/MSV). Description: Endocytosis of FITC-light chain by yolk sac cells. Format: cell-based, rat. The settings on record: 30 min, FIG. 14A; antibody at 1:1,000 dilution. Here is the method:
The yolk sac epithelial cell line (BN/MSV) was derived from yolk sac teratocarcinoma induced by fetectomy and placental injection of mouse sarcoma virus (Sahali et al., 1988). When grown under conventional conditions in modified Eagle's medium, supplemented with 2.5 mM L-glutamine, 10% fetal calf serum, and an antibiotic cocktail (penicillin, streptomycin, and Fungizone), the cells form a domed monolayer and express abundant cubilin (Sahali et al., 1988).
Internalization experiments were conducted by exposing confluent yolk sac cells in 24-cell plates to […] FITC-conjugated light chain. These cells were selected for endocytosis experiments because cubilin expression is 100-fold greater than cultured proximal tubule cells (Sahali et al., 1988). […] This concentration is selected because it is 10-fold higher than the half-maximal inhibitory concentration of the antibody determined from the brush border binding inhibition experiments. […] Cells are then trypsininzed, fixed in 1% formaldehyde, and suspended in PBS, and FITC incorporated into each cell is read in a Becton-Dickinson flow cytometer as described previously. Endocytosis curves are generated by plotting fluorescence units corrected for background against time. […]

The target of assay [7] is rabbit megalin (rabbit). Description: SPR (BIAcore 2000), rabbit megalin immobilized, 20 nM purified cubilin in flow, blank chip subtracted, one-binding-site fit.
The subject of assay [8] is renal brush border membrane. Conditions: cited from earlier work.
For assay [9], the system named is rat renal brush border membrane vesicles. Description: Gentamicin competition with fluorescein-light chain binding to brush border membrane vesicles (flow cytometry). Conditions: control 39.6±4.2, n=4. The procedure:
Given the abundance of megalin on the renal brush border membrane, if megalin is a light chain receptor this would predict that small polybasic drugs, such as gentamicin, which are known ligands for megalin, should compete for light chain binding to renal brush border membrane vesicles. To test this, rat renal brush border membrane vesicles were incubated in fluorescein-conjugated light chains with various concentrations of gentamicin. After washing, fluorescein-light chain binding to the membranes was analyzed by flow cytometry (FIG. 16). Estimate of half maximal binding concentration of gentamicin between 60 and 70 μM was placed in the middle of the curve. Gentamicin competes with fluorescent light chain binding to renal brush border membranes in a dose-dependent manner (control FITC-light chain binding 39.6±4.2 arbitrary fluorescence units, 10 μM gentamicin 45.1±3.1, 100 μM gentamicin 8.9±33.8*, 1000 μM gentamicin 6.3±1.9*, n=4, *p<0.05).

T1 sequence (O70244 33-3623): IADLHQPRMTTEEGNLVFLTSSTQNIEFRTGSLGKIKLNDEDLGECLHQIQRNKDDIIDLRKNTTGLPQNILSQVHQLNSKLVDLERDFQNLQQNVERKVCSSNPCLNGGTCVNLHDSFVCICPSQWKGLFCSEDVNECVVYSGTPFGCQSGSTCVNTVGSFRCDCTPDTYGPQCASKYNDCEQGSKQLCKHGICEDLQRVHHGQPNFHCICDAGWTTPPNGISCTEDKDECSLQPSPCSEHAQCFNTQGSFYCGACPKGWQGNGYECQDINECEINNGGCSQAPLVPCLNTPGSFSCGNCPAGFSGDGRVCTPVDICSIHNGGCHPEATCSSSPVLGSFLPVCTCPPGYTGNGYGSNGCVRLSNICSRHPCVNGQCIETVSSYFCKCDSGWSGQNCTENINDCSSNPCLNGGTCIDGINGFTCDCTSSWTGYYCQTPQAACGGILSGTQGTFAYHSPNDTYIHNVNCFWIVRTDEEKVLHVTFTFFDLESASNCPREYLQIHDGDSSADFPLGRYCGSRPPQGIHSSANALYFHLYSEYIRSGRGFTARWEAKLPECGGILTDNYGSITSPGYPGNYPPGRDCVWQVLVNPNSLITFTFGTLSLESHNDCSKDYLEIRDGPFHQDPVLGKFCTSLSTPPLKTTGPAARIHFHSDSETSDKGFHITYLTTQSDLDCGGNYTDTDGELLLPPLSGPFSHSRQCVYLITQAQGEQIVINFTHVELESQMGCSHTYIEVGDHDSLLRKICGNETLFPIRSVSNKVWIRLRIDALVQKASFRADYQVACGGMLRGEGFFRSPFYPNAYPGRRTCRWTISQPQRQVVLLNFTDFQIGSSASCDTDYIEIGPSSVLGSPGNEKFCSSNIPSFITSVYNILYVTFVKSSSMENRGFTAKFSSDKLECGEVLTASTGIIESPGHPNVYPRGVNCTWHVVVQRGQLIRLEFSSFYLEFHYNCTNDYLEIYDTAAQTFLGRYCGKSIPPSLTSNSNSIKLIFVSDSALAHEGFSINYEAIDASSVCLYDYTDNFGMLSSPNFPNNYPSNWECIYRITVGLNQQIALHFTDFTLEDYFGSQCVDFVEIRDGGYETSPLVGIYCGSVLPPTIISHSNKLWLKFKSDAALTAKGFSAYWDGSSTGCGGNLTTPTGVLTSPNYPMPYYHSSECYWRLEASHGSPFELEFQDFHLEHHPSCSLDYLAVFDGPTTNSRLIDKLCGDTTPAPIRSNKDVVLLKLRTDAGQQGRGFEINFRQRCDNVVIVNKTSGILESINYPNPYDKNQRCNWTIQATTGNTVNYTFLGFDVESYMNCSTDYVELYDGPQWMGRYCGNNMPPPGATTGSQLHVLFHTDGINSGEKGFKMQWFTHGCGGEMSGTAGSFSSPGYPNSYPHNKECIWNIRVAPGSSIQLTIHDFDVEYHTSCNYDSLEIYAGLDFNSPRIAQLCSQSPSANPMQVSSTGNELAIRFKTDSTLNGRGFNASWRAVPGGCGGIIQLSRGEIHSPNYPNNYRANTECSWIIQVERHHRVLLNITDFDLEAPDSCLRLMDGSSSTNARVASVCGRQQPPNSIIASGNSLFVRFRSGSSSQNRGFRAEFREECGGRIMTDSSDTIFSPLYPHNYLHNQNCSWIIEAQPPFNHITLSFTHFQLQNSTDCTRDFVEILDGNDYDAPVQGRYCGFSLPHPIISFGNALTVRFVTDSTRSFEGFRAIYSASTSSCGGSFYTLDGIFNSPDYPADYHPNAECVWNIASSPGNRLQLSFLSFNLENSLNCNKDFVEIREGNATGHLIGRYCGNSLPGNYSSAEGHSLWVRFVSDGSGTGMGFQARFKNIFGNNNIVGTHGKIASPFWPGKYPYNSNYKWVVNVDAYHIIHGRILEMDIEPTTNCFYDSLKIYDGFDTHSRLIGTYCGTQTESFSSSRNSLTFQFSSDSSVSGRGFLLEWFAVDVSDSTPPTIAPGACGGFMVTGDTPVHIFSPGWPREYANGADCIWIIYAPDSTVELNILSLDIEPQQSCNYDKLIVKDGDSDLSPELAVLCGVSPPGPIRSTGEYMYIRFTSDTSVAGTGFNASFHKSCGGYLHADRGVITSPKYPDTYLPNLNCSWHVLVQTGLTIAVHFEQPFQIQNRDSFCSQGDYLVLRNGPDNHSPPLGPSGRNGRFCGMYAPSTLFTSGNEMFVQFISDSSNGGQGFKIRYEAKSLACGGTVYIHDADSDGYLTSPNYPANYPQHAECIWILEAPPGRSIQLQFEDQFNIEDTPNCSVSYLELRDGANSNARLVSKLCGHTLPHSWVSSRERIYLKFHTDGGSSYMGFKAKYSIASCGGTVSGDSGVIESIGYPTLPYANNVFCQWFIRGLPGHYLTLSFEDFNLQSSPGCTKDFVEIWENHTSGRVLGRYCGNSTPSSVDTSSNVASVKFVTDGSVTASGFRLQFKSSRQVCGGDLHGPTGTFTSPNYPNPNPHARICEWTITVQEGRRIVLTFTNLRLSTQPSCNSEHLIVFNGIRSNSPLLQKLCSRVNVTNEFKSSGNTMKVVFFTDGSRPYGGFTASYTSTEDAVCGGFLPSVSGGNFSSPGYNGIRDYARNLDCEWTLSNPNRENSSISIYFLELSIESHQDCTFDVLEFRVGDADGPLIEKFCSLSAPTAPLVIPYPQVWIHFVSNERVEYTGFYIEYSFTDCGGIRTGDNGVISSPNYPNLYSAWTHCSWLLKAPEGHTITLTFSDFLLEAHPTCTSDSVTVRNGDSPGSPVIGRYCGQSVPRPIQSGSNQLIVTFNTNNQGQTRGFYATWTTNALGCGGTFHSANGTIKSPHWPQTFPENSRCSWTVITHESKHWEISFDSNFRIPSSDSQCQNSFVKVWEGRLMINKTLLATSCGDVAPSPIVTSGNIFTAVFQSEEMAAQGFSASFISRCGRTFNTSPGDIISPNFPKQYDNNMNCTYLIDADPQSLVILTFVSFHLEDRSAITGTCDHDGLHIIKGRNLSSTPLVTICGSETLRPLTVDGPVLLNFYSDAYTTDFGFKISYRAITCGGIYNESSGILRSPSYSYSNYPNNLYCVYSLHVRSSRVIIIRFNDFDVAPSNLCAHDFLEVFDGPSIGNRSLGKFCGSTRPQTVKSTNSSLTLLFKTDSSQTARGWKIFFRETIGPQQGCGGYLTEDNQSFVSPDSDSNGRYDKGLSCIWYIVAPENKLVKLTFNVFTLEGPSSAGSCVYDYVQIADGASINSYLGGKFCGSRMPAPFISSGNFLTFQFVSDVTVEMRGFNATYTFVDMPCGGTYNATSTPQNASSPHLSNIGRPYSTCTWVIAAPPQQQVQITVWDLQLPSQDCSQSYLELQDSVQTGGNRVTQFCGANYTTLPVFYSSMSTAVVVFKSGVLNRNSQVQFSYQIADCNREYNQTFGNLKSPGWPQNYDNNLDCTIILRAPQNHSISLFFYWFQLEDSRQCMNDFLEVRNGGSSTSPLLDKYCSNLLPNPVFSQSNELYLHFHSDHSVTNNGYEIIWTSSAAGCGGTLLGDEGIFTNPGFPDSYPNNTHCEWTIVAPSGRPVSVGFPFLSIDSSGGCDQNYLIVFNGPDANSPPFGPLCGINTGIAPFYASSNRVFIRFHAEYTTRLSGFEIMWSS
RAP (Receptor related protein) (ligand), sequence (P30533 35-357): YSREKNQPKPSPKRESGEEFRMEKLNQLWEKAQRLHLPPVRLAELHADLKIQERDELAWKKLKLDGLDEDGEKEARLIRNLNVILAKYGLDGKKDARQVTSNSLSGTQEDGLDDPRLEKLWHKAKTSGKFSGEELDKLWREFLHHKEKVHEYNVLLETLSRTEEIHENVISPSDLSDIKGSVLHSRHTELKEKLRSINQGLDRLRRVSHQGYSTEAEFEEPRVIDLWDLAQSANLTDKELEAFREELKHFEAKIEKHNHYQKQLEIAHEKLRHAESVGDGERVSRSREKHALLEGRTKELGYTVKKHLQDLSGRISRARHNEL
cubilin (purified; species of origin not stated where used) (receptor), sequence (O70244 33-3623): as the sequence (O70244 33-3623) above

For “Intrinsic factor vitamin B12: intrinsic factor-vitamin B12 complexes”, the “Binding to megalin (control experiments)” value in the assay with Rabbit megalin (megalin chip) was “no binding”.
Substance RAP (Receptor related protein) (ligand) showed a reduction of cubilin binding to megalin with rabbit megalin (rabbit) [1] of 75%. Also, the reduction of endocytosis of 125I-IF-B12 in cultured yolk sac cell in assay [2] was in the range of 10 to 15%.
On to “RAP: Receptor related protein; binds megalin and cubilin”, for which the “Reduction of binding of cubilin to megalin” value in the assay with Rabbit megalin (RAP prebound to megalin) stood at 75%. For the same substance, the “Competition between ligands for binding to cubilin” value (shortened to “Competition between ligands”) in the assay with Cubilin [3] was “does not inhibit”.
For the substance “albumin: bovine serum albumin used as nonspecific protein control”, in assay [4], the Endosomal fusion is 1584±314 arbitrary fluorescence units/mg protein. The “Effect of free protein on binding of cubilin to immobilized light chains (competition)” value with Cubilin [5] is on record as “neither competed with light chains, nor bound to cubilin”. Also, the “Effect on FITC-light chain endocytosis” value in [6] is “no effect”.
In turn, “cubilin (purified; species of origin not stated where used) (receptor)” gave a Kd with rabbit megalin (rabbit) [7] of 7 nM.
For “cubilin: 460 kDa epithelial glycoprotein receptor for intrinsic factor-vitamin B12 complexes; rat sequence SEQ ID No. 2”, at Rabbit megalin (binding data fitted to a one-binding-site model, 20 nM purified cubilin over immobilized rabbit megalin), binding was put at a Kd of 7 nM.
On to “cytochrome c: low molecular weight protein competing with light chain”, for which the “Competition with light chain for brush border membrane binding” value (shortened to “Competition with light chain”) in assay [8] was “competing”.
On to gentamicin, for which the FITC-light chain binding in assay [9] (10 μM gentamicin) was 45.1±3.1 arbitrary fluorescence units; in [9] (100 μM gentamicin) it was 8.9±33.8 arbitrary fluorescence units; in [9] (1000 μM gentamicin) it was 6.3±1.9 arbitrary fluorescence units. The “Competition between ligands” value at Cubilin [3] is “directly interferes”.
On to haptoglobin: protein ligand for cubilin, for which the “Competition between ligands” value in the assay with Cubilin [3] is recorded as “do not compete”.
lysozyme: the “Competition with light chain” value in assay [8] was “competing”.
On to myoglobin, for which the “Competition with light chain” value in [8] was “competing”.

Broadly, the Kd is the constant that tells how readily two partners part at equilibrium.

These data come from US6586389B1, “Cubilin protein, DNA sequences encoding cubilin and uses thereof” (Administrators of the Tulane Educational Fund, priority 1998, dated 2003).
